What was measured:
[1] = target: T1, Oxysterols receptor LXR-beta (Homo sapiens) (UniProt P55055)
T1 sequence (whole entry): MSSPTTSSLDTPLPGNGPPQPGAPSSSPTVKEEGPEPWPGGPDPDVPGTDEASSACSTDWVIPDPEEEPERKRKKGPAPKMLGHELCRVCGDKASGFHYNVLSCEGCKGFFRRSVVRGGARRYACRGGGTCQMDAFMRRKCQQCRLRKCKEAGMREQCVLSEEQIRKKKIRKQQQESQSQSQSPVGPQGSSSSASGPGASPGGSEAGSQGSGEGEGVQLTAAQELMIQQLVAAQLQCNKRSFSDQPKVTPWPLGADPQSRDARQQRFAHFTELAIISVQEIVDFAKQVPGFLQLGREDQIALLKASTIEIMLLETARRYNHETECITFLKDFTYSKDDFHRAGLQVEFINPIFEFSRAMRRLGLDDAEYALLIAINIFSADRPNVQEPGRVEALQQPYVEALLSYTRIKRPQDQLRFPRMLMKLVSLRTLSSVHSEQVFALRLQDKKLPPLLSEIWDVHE
Description: TA max fold induction against LXR beta

[2] = target: T2, Oxysterols receptor LXR-alpha (Homo sapiens) (UniProt Q13133)
T2 sequence (whole entry): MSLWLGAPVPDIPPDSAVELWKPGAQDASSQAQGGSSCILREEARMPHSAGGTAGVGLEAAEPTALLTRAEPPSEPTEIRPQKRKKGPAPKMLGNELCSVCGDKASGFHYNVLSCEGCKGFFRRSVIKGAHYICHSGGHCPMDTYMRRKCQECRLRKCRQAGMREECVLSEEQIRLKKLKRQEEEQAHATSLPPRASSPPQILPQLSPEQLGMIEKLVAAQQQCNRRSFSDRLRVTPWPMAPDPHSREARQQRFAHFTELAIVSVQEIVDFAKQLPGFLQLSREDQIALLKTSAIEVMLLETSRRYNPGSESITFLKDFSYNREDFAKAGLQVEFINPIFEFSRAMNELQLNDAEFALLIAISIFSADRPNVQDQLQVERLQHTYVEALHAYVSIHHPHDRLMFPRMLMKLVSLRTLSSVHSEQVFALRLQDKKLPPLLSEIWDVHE
Description: TA max fold induction against LXR alpha

[3] = target: T3, Oxysterols receptor LXR-beta (Homo sapiens, UniProt P55055); test: Effective concentration in recombinant human LXRbeta ligand binding domain in homogeneous time-resolved fluorescence assay
T3 sequence (P55055 whole entry): T1 sequence (whole entry)

[4] = target: T4, Oxysterols receptor LXR-alpha (Homo sapiens, UniProt Q13133); test: Effective concentration in recombinant human LXRalpha ligand binding domain in homogeneous time-resolved fluorescence assay
T4 sequence (Q13133 whole entry): T2 sequence (whole entry)

[5] = target: T3, Oxysterols receptor LXR-beta; test: Inhibitory concentration in LXRSPA beta binding assay
[6] = target: T4, Oxysterols receptor LXR-alpha; test: Inhibitory concentration in LXRSPA alpha binding assay

Compound CC(=O)Oc1ccc2c(c1)[C@@]1(C)CCCC(C)(C(=O)OC(=O)[C@@]3(C)CCC[C@]4(C)c5cc(OC(C)=O)ccc5CC[C@@H]34)[C@@H]1CC2 (stereo partly specified) has an Induction [1] of 54 and an Induction [2] of 60.
For C=CCOC(=O)[C@@]1(C)CCC[C@]2(C)c3cc(O)ccc3CC[C@@H]12, the EC50 [3] was > 50 µM, the EC50 [4] was > 50 µM and the IC50 [5] was > 15 µM. The IC50 [6] was > 15 µM.
